Key:
Format in all cases: in vivo
[1] = system: adult brown dog ticks (Rhipicephalus sanguineus); assay: Rhipicephalus sanguineus in-vitro contact test with adult brown dog ticks; details: 5 μg/cm^2 (=500 g/ha), after 48 hours, read-out: efficacy (ticks dead or moribund)
Outline: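 Glass tubes are coated with compound dissolved in acetone, a 900 ppm solution yielding 5 μg/cm^2 on the inner surface. Adult ticks (5-10 per tube) are kept on the dry film at room temperature for 48 h, then those unable to escape 45-50° C heat are counted as dead or moribund.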

[2] = system: green peach aphid (Myzus persicae); assay: Myzus persicae oral test; details: 120 h
Outline: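 Compound was dissolved in acetone, diluted with water and mixed into IPL41 insect medium with sugar under a parafilm seal. A mixed aphid population fed through the parafilm, and mortality (%) was scored after 5 days.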

[3] = system: Rhipicephalus microplus larvae (strain Parkhurst, resistant against synthetic pyrethroids); assay: Rhipicephalus (Boophilus) microplus in-vitro contact test, larval cattle tick; details: 5 μg/cm^2 (=500 g/ha), after 48 hours, read-out: efficacy (larvae dead or moribund)
Outline: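 Efficacy is read at 48 h from negative geotactic behaviour after larvae are patted to the tube bottom, expressed as percentage dead or moribund. Larvae (20-50) sit in glass tubes whose walls carry an evaporated acetone film of compound (900 ppm corresponds to 5 μg/cm^2), kept at 27° C., 85% relative humidity.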

[4] = system: fall armyworm larvae (Spodoptera frugiperda); assay: Spodoptera frugiperda spray test (maize leaf sections); details: 168 h
Outline: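 Percent kill of Spodoptera frugiperda caterpillars read at day 7. Larvae placed on dried Zea mays leaf pieces previously sprayed with test preparation, made from acetone plus DMF and diluted with emulsifier-containing water (1000 ppm).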

[5] = system: larvae of the banded cucumber beetle (Diabrotica balteata); assay: Diabrotica balteata spray test; details: 168 h, 100 g/ha (=32 μg/well), wheat seeds, after 7 days, read-out: efficacy (seedling growth)
Outline: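 Efficacy in % was read 7 days after infesting with 10-20 larvae per unit. Before infestation, 1-day-germinated wheat seedlings (5 per well) were sprayed with the active ingredient, formulated in acetone and dimethylformamide plus emulsifier and diluted with water containing emulsifier.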

[6] = system: adult cat fleas (Ctenocephalides felis); assay: Ctenocephalides felis in-vitro contact test, adult cat flea; details: 5 μg/cm^2 (=500 g/ha), after 48 hours
Outline: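 After 48 h of room-temperature exposure in tubes whose walls carried dried compound residue (5 μg/cm^2, from 900 ppm acetone solution), adult cat fleas (5-10 per tube) were heat-challenged at 45-50° C up to 5 min. Fleas unable to climb away were counted dead or moribund, expressed as % efficacy.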

[7] = system: adult unfed cat fleas (Ctenocephalides felis); assay: Ctenocephalides felis oral test; details: 48 h
Outline: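 About 20 adult unfed fleas fed through parafilm on cattle blood containing compound (DMSO stock diluted in blood), blood held at 37 °C and fleas at room temperature. Mortality (%) scored after 2 days.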

[8] = system: adult flies Musca domestica strain WHO-N; assay: Musca domestica test (MUSCDO surface treatment & contact assay); details: 24 hours after contact, read-out: efficacy (mortality); for mortality at 4 mg/m2: surface concentration 4 mg/m^2, 30 min exposure; for mortality at 20 mg/m2: surface concentration 20 mg/m^2, 30 min exposure
Outline: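 Percent kill read 24 h post-contact, after adult flies (strain WHO-N) spent 30 min on a glazed tile treated with test solution (acetone, 2 mg/ml, plus 2000 ppm rapeseed oil methyl ester) and dried.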

Row | SMILES | pest or weed control at 5 µg/cm2, 500 g/ha [1] [%] | mortality at 4 ppm [2] [%] | pest or weed control at 5 µg/cm2 [3] [%] | mortality at 100 g/ha [4] [%] | pest or weed control at 32 µg/disc, 100 g/ha [5] [%] | efficacy (fleas dead or moribund) [6] [%] | mortality at 100 ppm [7] [%] | mortality at 4 mg/m2 [8] [%] | mortality at 20 mg/m2 [8] [%]
1 | C[C@H](NC(=O)c1cc(C(F)(F)F)cc(C(F)(F)F)c1)c1ncnn1-c1ncc(C#N)s1 [I-2] | 100 | 100 | 100 | 100 | 100 | 80 | 100 | 90 to 100 | 80 to 100
2 | Cc1nc([C@H](C)NC(=O)c2cc(C(F)(F)F)cc(C(F)(F)F)c2)n(-c2ncc(C(=O)N(C)CC3CC3)s2)n1 [I-4] | 100 | 100 | 100 | 100 | 100 | 100 | 100 | – | 80 to 100
3 | Cc1nc([C@H](C)NC(=O)c2cc(C(F)(F)F)cc(C(F)(F)F)c2)n(-c2ncc(C(=O)N(C)C)s2)n1 [I-5, 2-(5-{(1S)-1-[3,5-bis(trifluoromethyl)benzamido]ethyl}-3-methyl-1H-1,2,4-triazol-1-yl)-N,N-dimethyl-1,3-thiazole-5-carboxamide] | 100 | 100 | 100 | 100 | 100 | 100 | 100 | 90 to 100 | –
4 | CCN(C)C(=O)c1cnc(-n2nc(C)nc2[C@H](C)NC(=O)c2cc(C(F)(F)F)cc(C(F)(F)F)c2)s1 [I-6] | 100 | 100 | 100 | 100 | 100 | 100 | 100 | 90 to 100 | 80 to 100
5 | Cc1nc([C@H](C)NC(=O)c2cc(C(F)(F)F)cc(C(F)(F)F)c2)n(-c2ncc(C(=O)N(C)CC#N)s2)n1 [I-9] | 100 | 100 | 100 | 100 | 100 | 100 | 100 | – | 80 to 100
6 | Cc1nc([C@H](C)NC(=O)c2cc(C(F)(F)F)cc(C(F)(F)F)c2)n(-c2ncc(C(N)=O)s2)n1 [I-21, 2-(5-{(1S)-1-[3,5-bis(trifluoromethyl)benzamido]ethyl}-3-methyl-1H-1,2,4-triazol-1-yl)-1,3-thiazole-5-carboxamide] | 100 | 100 | 100 | 100 | 100 | 100 | 100 | 90 to 100 | 80 to 100
